Source: patent US8242275B2, “Bicyclic pyrazole compounds as antibacterial agents” (Janssen Pharmaceutica NV, priority 2005, dated 2012)
Values after ≈ are worked out from the molar mass of the structure shown.

Assays:
E. coli DNA gyrase = molecular target: T1, E. coli DNA gyrase (Escherichia coli, UniProt P0AES4+P0AES6); test: DNA gyrase inhibition assay (supercoiling); format: biochemical; conditions: E. coli DNA gyrase supercoiling, visual inspection of gels; read-out: DNA Gyrase IC50 (converted)
T1 construct: purchased John Innes Enterprises Ltd. (John Innes Centre, UK)
Description: Inhibition of the supercoiling activity of E. coli DNA gyrase was determined using enzymes, buffers and substrates received from John Innes Enterprises Ltd. (John Innes Centre, UK). The reactions were performed according to the manufacturer's directions, with the following modifications.
DNA supercoiling reactions were carried out in a total reaction volume of 20 μL containing 250 ng of relaxed pBR322, 35 mM Tris-HCl (pH 7.5), 24 mM KCl, 4 mM MgCl2, 2 mM dithiothreitol, 1.8 mM spermidine, 1 mM ATP, 6.5% glycerol and 100 μg/mL albumin. Compounds diluted in 10% DMSO were added to the reaction mixture to reach a final concentration of 0.5% DMSO. Enzyme was diluted to […] in a solution of 50 mM Tris-HCl (pH 7.5), 100 mM KCl, 2 mM dithiothreitol, 1 mM EDTA, and 50% glycerol. Diluted enzyme (0.2 unit) was added to each reaction.
The reactions were incubated at 37° C. for 30 min. The reactions were then cooled to 0° C., followed by addition of 3 μL of 40% glycerol, 100 mM Tris-HCl (pH 7.5), 50 mM EDTA, 0.5% SDS and 0.1% bromophenol blue. Samples were separated on 1.0% agarose gels. Gels were stained with Ethidium bromide and photographed with a Stratagene Eagle Eye II.

S. aureus ATCC13709 = test: In vitro antibacterial activity (MIC assay), broth microdilution; format: cell-based; conditions: Staphylococcus aureus, ATCC13709; read-out: S. aureus ATCC13709 MIC
Description: (§1) Minimal inhibitory concentration (MIC) has been an indicator of in vitro antibacterial activity widely used in the art. The in vitro antibacterial activity of the compounds was determined by the broth microdilution method described by the National Committee for Clinical Laboratory Standards (NCCLS) in the NCCLS Document M7-A5, Vol. 20, No. 2, “Methods for Dilution Antimicrobial Susceptibility Test for Bacteria that Grow Aerobically—Fifth Edition”, which is incorporated herein by reference.
(§2) In this method, an aliquot of test compound from an 11-point series of 2-fold serial dilutions of compounds in 100% DMSO was added to wells in microdilution plates. The test organisms were prepared by adjusting the turbidity of actively growing broth cultures so that the final concentration of test organism after addition to wells with or without compounds was approximately 5×10^5 CFU/mL.
(§3) Following inoculation of the microdilution plates, the plates were incubated at 35° C. for 16-24 h and then scored for bacterial growth. […] The amount of growth in the wells containing the test compound was compared with the amount of growth in the growth-control wells (no test compound used) in each plate, and with the amount of growth in the wells containing control compounds (such as ciprofloxacin). Compounds of the present invention were tested against several bacterial strains. The MIC values (in μg/mL) are presented in Table 1 for Gram-negative (E. coli KL-16 (GSC strain 4245); data marked as (*) was obtained with E. coli ATCC25922) and Gram-positive bacteria (S. aureus ATCC13709; S. pneumoniae ATCC49619).

[1] = tested on: E. coli KL-16 (GSC strain 4245); test: as above; format: cell-based; conditions: Escherichia coli
Description: as §1, §2, §3

S. pneumoniae ATCC49619 = test: as above; format: cell-based; conditions: Streptococcus pneumoniae, ATCC49619; read-out: S. pneumoniae ATCC49619 MIC
Description: as §1, §2, §3

T1 sequence (P0AES4 whole entry, one chain of several): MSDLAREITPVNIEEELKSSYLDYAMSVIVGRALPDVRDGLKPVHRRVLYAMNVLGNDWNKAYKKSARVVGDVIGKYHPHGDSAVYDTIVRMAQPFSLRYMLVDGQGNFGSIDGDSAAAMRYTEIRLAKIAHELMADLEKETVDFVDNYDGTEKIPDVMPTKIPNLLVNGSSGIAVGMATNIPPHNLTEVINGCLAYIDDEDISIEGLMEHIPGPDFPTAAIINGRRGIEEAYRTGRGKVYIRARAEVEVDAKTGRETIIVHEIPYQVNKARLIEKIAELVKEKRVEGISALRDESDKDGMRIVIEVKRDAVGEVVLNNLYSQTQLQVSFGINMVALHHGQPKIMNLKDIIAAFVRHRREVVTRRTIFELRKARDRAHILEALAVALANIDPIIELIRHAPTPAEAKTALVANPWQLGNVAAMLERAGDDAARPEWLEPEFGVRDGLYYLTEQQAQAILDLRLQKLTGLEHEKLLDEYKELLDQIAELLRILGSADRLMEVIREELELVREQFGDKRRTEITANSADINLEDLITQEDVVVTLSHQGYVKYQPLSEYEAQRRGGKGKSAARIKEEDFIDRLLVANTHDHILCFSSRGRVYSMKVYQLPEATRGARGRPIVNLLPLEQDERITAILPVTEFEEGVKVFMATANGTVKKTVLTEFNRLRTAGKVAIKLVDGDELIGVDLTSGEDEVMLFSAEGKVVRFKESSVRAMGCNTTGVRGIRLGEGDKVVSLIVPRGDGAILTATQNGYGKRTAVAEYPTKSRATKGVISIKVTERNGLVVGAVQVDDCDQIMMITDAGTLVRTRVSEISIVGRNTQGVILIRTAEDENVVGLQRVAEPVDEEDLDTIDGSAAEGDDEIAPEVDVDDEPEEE

SMILES | IC50 (E. coli DNA gyrase) | MIC (S. aureus ATCC13709) | MIC [1] | MIC (S. pneumoniae ATCC49619)
COc1ccc2nccc(-n3cc4c(n3)CCC(NC(=O)/C=C/c3cccc([N+](=O)[O-])c3)C4)c2n1 (stereo not shown) [Example 14, N-[2-(6-Methoxy-[1,5]naphthyridin-4-yl)-4,5,6,7-tetrahydro-2H-indazol-5-yl]-3-(3-nitro-phenyl)-acrylamide] | 2.13 µM | 1 µg/mL (≈ 2.13 µM) | > 128 µg/mL | 16 µg/mL (≈ 34 µM)
COc1ccc2nccc(-n3cc4c(n3)CCC(NCc3cc(F)c5c(c3)OCCO5)C4)c2n1 (stereo not shown) [Example 101, (8-Fluoro-2,3-dihydro-benzo[1,4]dioxin-6-ylmethyl)-[2-(6-methoxy-[1,5]naphthyridin-4-yl)-4,5,6,7-tetrahydro-2H-indazol-5-yl]-amine] | 0.542 µM | 0.125 µg/mL (≈ 0.271 µM) | 4 µg/mL (≈ 8.67 µM) | 1 µg/mL (≈ 2.17 µM)
COc1ccc2nccc(-n3cc4c(n3)CCC(NC(=O)c3cc5ccccc5o3)C4)c2c1 (stereo not shown) [Example 25, Benzofuran-2-carboxylic acid [2-(6-methoxy-quinolin-4-yl)-4,5,6,7-tetrahydro-2H-indazol-5-yl]-amide] | > 36.5 µM | 1 µg/mL (≈ 2.28 µM) | > 128 µg/mL | 8 µg/mL (≈ 18.2 µM)
COc1ccc2nccc(-n3cc4c(n3)CCC(NC(=O)c3cc5c(cc3Cl)SCC(=O)N5)C4)c2c1 (stereo not shown) [Example 20, 7-Chloro-3-oxo-3,4-dihydro-2H-benzo[1,4]thiazine-6-carboxylic acid [2-(6-methoxy-quinolin-4-yl)-4,5,6,7-tetrahydro-2H-indazol-5-yl]-amide] | 0.962 µM | < 0.125 µg/mL | 2 µg/mL (≈ 3.85 µM) | 2 µg/mL (≈ 3.85 µM)
O=C1CSc2ccc(C(=O)NC3CCc4c(cnn4-c4cc(C(F)(F)F)nc5ccccc45)C3)cc2N1 (stereo not shown) [Example 97, 3-Oxo-3,4-dihydro-2H-benzo[1,4]thiazine-6-carboxylic acid [1-(2-trifluoromethyl-quinolin-4-yl)-4,5,6,7-tetrahydro-1H-indazol-5-yl]-amide] | > 30.6 µM | > 128 µg/mL | > 128 µg/mL | > 128 µg/mL
O=C1CSc2cc(F)c(C(=O)NC3CCc4nn(-c5cccc6ccccc56)cc4C3)cc2N1 (stereo not shown) [Example 33, 7-Fluoro-3-oxo-3,4-dihydro-2H-benzo[1,4]thiazine-6-carboxylic acid (2-naphthalen-1-yl-4,5,6,7-tetrahydro-2H-indazol-5-yl)-amide] | 4.23 µM | 1 µg/mL (≈ 2.12 µM) | > 128 µg/mL | 8 µg/mL (≈ 16.9 µM)
COc1ccc2nccc(-n3ncc4c3CCC(NC(=O)c3cc5c(cc3F)SCC(=O)N5)C4)c2c1 (stereo not shown) [Example 19, 7-Fluoro-3-oxo-3,4-dihydro-2H-benzo[1,4]thiazine-6-carboxylic acid [1-(6-methoxy-quinolin-4-yl)-4,5,6,7-tetrahydro-1H-indazol-5-yl]-amide] | > 63.5 µM | 0.5 µg/mL (≈ 0.993 µM) | > 128 µg/mL | 8 µg/mL (≈ 15.9 µM)
COc1ccc2nccc(-n3cc4c(n3)CCC(NC(=O)/C=C/c3ccc(Cl)c(Cl)c3)C4)c2n1 (stereo not shown) [Example 92, 3-(3,4-Dichloro-phenyl)-N-[2-(6-methoxy-[1,5]naphthyridin-4-yl)-4,5,6,7-tetrahydro-2H-indazol-5-yl]-acrylamide] | > 32.4 µM | 0.5 µg/mL (≈ 1.01 µM) | > 128 µg/mL | > 128 µg/mL
COc1ccc2nccc(-n3cc4c(n3)CCC(NCCCc3ccc(Cl)c(Cl)c3)C4)c2n1 (stereo not shown) [Example 48, [3-(3,4-Dichloro-phenyl)-propyl]-[2-(6-methoxy-[1,5]naphthyridin-4-yl)-4,5,6,7-tetrahydro-2H-indazol-5-yl]-amine] | > 66.3 µM | 0.25 µg/mL (≈ 0.518 µM) | 32 µg/mL (≈ 66.3 µM) | 1 µg/mL (≈ 2.07 µM)
COc1ccc2nccc(-n3cc4c(n3)CCC(NC(=O)c3cc5cc(F)c(F)cc5[nH]3)C4)c2c1 (stereo not shown) [Example 74, 5,6-Difluoro-1H-indole-2-carboxylic acid [2-(6-methoxy-quinolin-4-yl)-4,5,6,7-tetrahydro-2H-indazol-5-yl]-amide] | 4.22 µM | 1 µg/mL (≈ 2.11 µM) | > 128 µg/mL | 8 µg/mL (≈ 16.9 µM)
COc1ccc2nccc(-n3cc4c(n3)CCC(NC(=O)c3ccc([N+](=O)[O-])cc3F)C4)c2c1 (stereo not shown) [Example 118, 2-Fluoro-N-[2-(6-methoxy-quinolin-4-yl)-4,5,6,7-tetrahydro-2H-indazol-5-yl]-4-nitro-benzamide] | > 34.7 µM | 4 µg/mL (≈ 8.67 µM) | > 128 µg/mL | > 128 µg/mL
COc1ccc2nccc(-n3cc4c(n3)CCC(NCC(=O)Nc3cc(F)cc(F)c3)C4)c2c1 (stereo not shown) [Example 61, N-(3,5-Difluoro-phenyl)-2-[2-(6-methoxy-quinolin-4-yl)-4,5,6,7-tetrahydro-2H-indazol-5-ylamino]-acetamide] | 4.32 µM | 0.5 µg/mL (≈ 1.08 µM) | 16 µg/mL (≈ 34.5 µM) | 8 µg/mL (≈ 17.3 µM)
COc1ccc2nccc(-n3cc4c(n3)CCC(NC(=O)c3cc5ccccc5[nH]3)C4)c2c1 (stereo not shown) [Example 21, 1H-Indole-2-carboxylic acid [2-(6-methoxy-quinolin-4-yl)-4,5,6,7-tetrahydro-2H-indazol-5-yl]-amide] | > 36.6 µM | 1 µg/mL (≈ 2.29 µM) | > 128 µg/mL | 8 µg/mL (≈ 18.3 µM)
COc1ccc2nccc(-n3cc4c(n3)CCC(NC(=O)c3ccc5c(c3)OCCN5C)C4)c2c1 (stereo not shown) [Example 79, 4-Methyl-3,4-dihydro-2H-benzo[1,4]oxazine-7-carboxylic acid [2-(6-methoxy-quinolin-4-yl)-4,5,6,7-tetrahydro-2H-indazol-5-yl]-amide] | > 34.1 µM | 4 µg/mL (≈ 8.52 µM) | > 128 µg/mL | 8 µg/mL (≈ 17 µM)
COc1ccc2nccc(-n3cc4c(n3)CCC(NCc3cc(F)c5c(c3)OCCO5)C4)c2c1 (stereo not shown) [Example 100, (8-Fluoro-2,3-dihydro-benzo[1,4]dioxin-6-ylmethyl)-[2-(6-methoxy-quinolin-4-yl)-4,5,6,7-tetrahydro-2H-indazol-5-yl]-amine] | 1.09 µM | 0.25 µg/mL (≈ 0.543 µM) | 16 µg/mL (≈ 34.7 µM) | 0.5 µg/mL (≈ 1.09 µM)
COc1ccc2nccc(-n3cc4c(n3)CCC(NC(=O)/C=C/c3ccc(Cl)cc3)C4)c2n1 (stereo not shown) [Example 90, 3-(4-Chloro-phenyl)-N-[2-(6-methoxy-[1,5]naphthyridin-4-yl)-4,5,6,7-tetrahydro-2H-indazol-5-yl]-acrylamide] | > 34.8 µM | 0.5 µg/mL (≈ 1.09 µM) | > 128 µg/mL | > 128 µg/mL
COc1ccc2nccc(-n3cc4c(n3)CCC(NCc3ccc(N5CCCC5)cc3)C4)c2n1 (stereo not shown) [Example 87, [2-(6-Methoxy-[1,5]naphthyridin-4-yl)-4,5,6,7-tetrahydro-2H-indazol-5-yl]-(4-pyrrolidin-1-yl-benzyl)-amine] | 4.4 µM | 2 µg/mL (≈ 4.4 µM) | 64 µg/mL (≈ 141 µM) | 8 µg/mL (≈ 17.6 µM)
COc1ccc2nccc(-n3cc4c(n3)CCN(C(=O)c3ccc5c(c3)NC(=O)CS5)CC4)c2n1 [Example 15, 6-[2-(6-Methoxy-[1,5]naphthyridin-4-yl)-4,5,7,8-tetrahydro-2H-1,2,6-triaza-azulene-6-carbonyl]-4H-benzo[1,4]thiazin-3-one] | > 65.8 µM | 1 µg/mL (≈ 2.06 µM) | > 128 µg/mL | 16 µg/mL (≈ 32.9 µM)
COc1ccc2nccc(-n3cc4c(n3)CCC(NCCCc3ccccc3)C4)c2n1 (stereo not shown) [Example 45, [2-(6-Methoxy-[1,5]naphthyridin-4-yl)-4,5,6,7-tetrahydro-2H-indazol-5-yl]-(3-phenyl-propyl)-amine] | 1.93 µM | 0.25 µg/mL (≈ 0.605 µM) | 128 µg/mL (≈ 310 µM) | < 0.125 µg/mL
